Test system: Hs578T multi-cell spheroids, viability
Experiment: Anticancer human tumor Hs578T cell line growth inhibition [IpAb];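 further: drug exposure lasted 7 days before readout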
Conditions: for IC50: curve of first compound; for viability, T/C: stronger effect = lower value
How it was run: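 Multi-cell spheroids of 60% tumour cells, 25% HUVEC and 15% MSC in ultra-low-attachment U-bottom wells, treated with agents combined with ipatasertib or abemaciclib. Half-log ranges top out near clinical Cmax, or 10 microM when Cmax is unknown.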

[1] = second compound 0.01 µM, first compound 0.0316 µM
[2] = second compound 0.01 µM, first compound 0.1 µM
[3] = second compound 0.01 µM, first compound 0.316 µM
[4] = second compound 0.01 µM, first compound 1 µM
[5] = second compound 0.01 µM, first compound 3.16 µM
[6] = second compound 0.01 µM, first compound 10 µM
[7] = second compound 0.0316 µM, first compound 0.0316 µM
[8] = second compound 0.0316 µM, first compound 0.1 µM
[9] = second compound 0.0316 µM, first compound 0.316 µM
[10] = second compound 0.0316 µM, first compound 1 µM
[11] = second compound 0.0316 µM, first compound 3.16 µM
[12] = second compound 0.0316 µM, first compound 10 µM
[13] = second compound 0.1 µM, first compound 0.0316 µM
[14] = second compound 0.1 µM, first compound 0.1 µM
[15] = second compound 0.1 µM, first compound 0.316 µM
[16] = second compound 0.1 µM, first compound 1 µM
[17] = second compound 0.1 µM, first compound 3.16 µM
[18] = second compound 0.1 µM, first compound 10 µM
[19] = second compound 0.316 µM, first compound 0.0316 µM
[20] = second compound 0.316 µM, first compound 0.1 µM
[21] = second compound 0.316 µM, first compound 0.316 µM
[22] = second compound 0.316 µM, first compound 1 µM
[23] = second compound 0.316 µM, first compound 3.16 µM
[24] = second compound 0.316 µM, first compound 10 µM
[25] = second compound 1 µM, first compound 0.0316 µM
[26] = second compound 1 µM, first compound 0.1 µM
[27] = second compound 1 µM, first compound 0.316 µM
[28] = second compound 1 µM, first compound 1 µM
[29] = second compound 1 µM, first compound 3.16 µM
[30] = second compound 1 µM, first compound 10 µM

CC(=O)c1c(C)c2cnc(Nc3ccc(N4CCNCC4)cn3)nc2n(C2CCCC2)c1=O + CCN1CCN(Cc2ccc(Nc3ncc(F)c(-c4cc(F)c5nc(C)n(C(C)C)c5c4)n3)nc2)CC1
IC50 (second compound 0.01 µM): > 300 nM
IC50 (second compound 0.0316 µM): > 300 nM
IC50 (second compound 0.1 µM): > 300 nM
IC50 (second compound 0.316 µM): > 300 nM
IC50 (second compound 1 µM): > 300 nM
viability, T/C (second compound 0.01 µM, first compound 0.000949 µM): 106%
viability, T/C (second compound 0.01 µM, first compound 0.003 µM): 95.1%
viability, T/C (second compound 0.01 µM, first compound 0.00949 µM): 95%
viability, T/C (second compound 0.01 µM, first compound 0.03 µM): 81.9%
viability, T/C (second compound 0.01 µM, first compound 0.0949 µM): 77.5%
viability, T/C (second compound 0.01 µM, first compound 0.3 µM): 63.4%
viability, T/C (second compound 0.0316 µM, first compound 0.000949 µM): 91.3%
viability, T/C (second compound 0.0316 µM, first compound 0.003 µM): 89.1%
viability, T/C (second compound 0.0316 µM, first compound 0.00949 µM): 90.3%
viability, T/C (second compound 0.0316 µM, first compound 0.03 µM): 73.3%
viability, T/C (second compound 0.0316 µM, first compound 0.0949 µM): 69.3%
viability, T/C (second compound 0.0316 µM, first compound 0.3 µM): 60.5%
viability, T/C (second compound 0.1 µM, first compound 0.000949 µM): 75.6%
viability, T/C (second compound 0.1 µM, first compound 0.003 µM): 80.8%
viability, T/C (second compound 0.1 µM, first compound 0.00949 µM): 81.8%
viability, T/C (second compound 0.1 µM, first compound 0.03 µM): 80.8%
viability, T/C (second compound 0.1 µM, first compound 0.0949 µM): 66%
viability, T/C (second compound 0.1 µM, first compound 0.3 µM): 73.3%
viability, T/C (second compound 0.316 µM, first compound 0.000949 µM): 81.3%
viability, T/C (second compound 0.316 µM, first compound 0.003 µM): 85.2%
viability, T/C (second compound 0.316 µM, first compound 0.00949 µM): 82.2%
viability, T/C (second compound 0.316 µM, first compound 0.03 µM): 79.8%
viability, T/C (second compound 0.316 µM, first compound 0.0949 µM): 70.7%
viability, T/C (second compound 0.316 µM, first compound 0.3 µM): 68%
viability, T/C (second compound 1 µM, first compound 0.000949 µM): 93%
viability, T/C (second compound 1 µM, first compound 0.003 µM): 98.5%
viability, T/C (second compound 1 µM, first compound 0.00949 µM): 93.7%
viability, T/C (second compound 1 µM, first compound 0.03 µM): 96.7%
viability, T/C (second compound 1 µM, first compound 0.0949 µM): 89.5%
viability, T/C (second compound 1 µM, first compound 0.3 µM): 89%

CC1(C)CCC(CN2CCN(c3ccc(C(=O)NS(=O)(=O)c4ccc(NCC5CCOCC5)c([N+](=O)[O-])c4)c(Oc4cnc5[nH]ccc5c4)c3)CC2)=C(c2ccc(Cl)cc2)C1 + CCN1CCN(Cc2ccc(Nc3ncc(F)c(-c4cc(F)c5nc(C)n(C(C)C)c5c4)n3)nc2)CC1
IC50 (second compound 0.01 µM): 5960 nM
IC50 (second compound 0.0316 µM): 5580 nM
IC50 (second compound 0.1 µM): 5500 nM
IC50 (second compound 0.316 µM): 5710 nM
IC50 (second compound 1 µM): 6840 nM
viability, T/C [1]: 93.3%
viability, T/C [2]: 107%
viability, T/C [3]: 103%
viability, T/C [4]: 99.8%
viability, T/C [5]: 90.4%
viability, T/C [6]: 16.8%
viability, T/C [7]: 96.4%
viability, T/C [8]: 97%
viability, T/C [9]: 98.1%
viability, T/C [10]: 91.1%
viability, T/C [11]: 81%
viability, T/C [12]: 18.6%
viability, T/C [13]: 87.2%
viability, T/C [14]: 95.3%
viability, T/C [15]: 84.6%
viability, T/C [16]: 90.9%
viability, T/C [17]: 76.7%
viability, T/C [18]: 20.8%
viability, T/C [19]: 86.3%
viability, T/C [20]: 89.1%
viability, T/C [21]: 80.6%
viability, T/C [22]: 87.4%
viability, T/C [23]: 80.2%
viability, T/C [24]: 21.3%
viability, T/C [25]: 96.5%
viability, T/C [26]: 98.2%
viability, T/C [27]: 91.8%
viability, T/C [28]: 96.7%
viability, T/C [29]: 101%
viability, T/C [30]: 26.9%

CCCS(=O)(=O)Nc1ccc(F)c(C(=O)c2c[nH]c3ncc(-c4ccc(Cl)cc4)cc23)c1F + CCN1CCN(Cc2ccc(Nc3ncc(F)c(-c4cc(F)c5nc(C)n(C(C)C)c5c4)n3)nc2)CC1
IC50 (second compound 0.01 µM): 4380 nM
IC50 (second compound 0.0316 µM): 4190 nM
IC50 (second compound 0.1 µM): 4320 nM
IC50 (second compound 0.316 µM): 4670 nM
IC50 (second compound 1 µM): 5520 nM
viability, T/C [1]: 96.9%
viability, T/C [2]: 103%
viability, T/C [3]: 99.1%
viability, T/C [4]: 97.4%
viability, T/C [5]: 67%
viability, T/C [6]: 8.02%
viability, T/C [7]: 95.3%
viability, T/C [8]: 100%
viability, T/C [9]: 98.6%
viability, T/C [10]: 92.4%
viability, T/C [11]: 64.4%
viability, T/C [12]: 5.43%
viability, T/C [13]: 90.8%
viability, T/C [14]: 87.6%
viability, T/C [15]: 87.1%
viability, T/C [16]: 82.5%
viability, T/C [17]: 66.4%
viability, T/C [18]: 6.9%
viability, T/C [19]: 92.4%
viability, T/C [20]: 89.5%
viability, T/C [21]: 87.8%
viability, T/C [22]: 79.9%
viability, T/C [23]: 71.7%
viability, T/C [24]: 11.4%
viability, T/C [25]: 106%
viability, T/C [26]: 97.4%
viability, T/C [27]: 102%
viability, T/C [28]: 104%
viability, T/C [29]: 87.1%
viability, T/C [30]: 10.3%

COc1c(OCCCN2CCOCC2)ccc2c3n(c(=NC(=O)c4cnc(N)nc4)nc12)CCN3 + CCN1CCN(Cc2ccc(Nc3ncc(F)c(-c4cc(F)c5nc(C)n(C(C)C)c5c4)n3)nc2)CC1
IC50 (second compound 0.01 µM): 22.8 nM
IC50 (second compound 0.0316 µM): 20.7 nM
IC50 (second compound 0.1 µM): 15.2 nM
IC50 (second compound 0.316 µM): 17.1 nM
IC50 (second compound 1 µM): 25.3 nM
viability, T/C (second compound 0.01 µM, first compound 0.00316 µM): 88.7%
viability, T/C (second compound 0.01 µM, first compound 0.01 µM): 65.9%
viability, T/C [1]: 43.3%
viability, T/C [2]: 26.9%
viability, T/C [3]: 16%
viability, T/C [4]: 8.09%
viability, T/C (second compound 0.0316 µM, first compound 0.00316 µM): 75.6%
viability, T/C (second compound 0.0316 µM, first compound 0.01 µM): 63.6%
viability, T/C [7]: 40.5%
viability, T/C [8]: 28%
viability, T/C [9]: 11.6%
viability, T/C [10]: 7.23%
viability, T/C (second compound 0.1 µM, first compound 0.00316 µM): 75.8%
viability, T/C (second compound 0.1 µM, first compound 0.01 µM): 53.5%
viability, T/C [13]: 40.9%
viability, T/C [14]: 26.8%
viability, T/C [15]: 13.8%
viability, T/C [16]: 6.99%
viability, T/C (second compound 0.316 µM, first compound 0.00316 µM): 82.1%
viability, T/C (second compound 0.316 µM, first compound 0.01 µM): 55.8%
viability, T/C [19]: 42.1%
viability, T/C [20]: 26.1%
viability, T/C [21]: 15.5%
viability, T/C [22]: 7.2%
viability, T/C (second compound 1 µM, first compound 0.00316 µM): 91.5%
viability, T/C (second compound 1 µM, first compound 0.01 µM): 67.4%
viability, T/C [25]: 43.1%
viability, T/C [26]: 32.5%
viability, T/C [27]: 20.1%
viability, T/C [28]: 9.99%

Cc1nc(NC(=O)N2CCCC2C(N)=O)sc1-c1ccnc(C(C)(C)C(F)(F)F)c1 (stereo not given) + CCN1CCN(Cc2ccc(Nc3ncc(F)c(-c4cc(F)c5nc(C)n(C(C)C)c5c4)n3)nc2)CC1
IC50 (second compound 0.01 µM): 1780 nM
IC50 (second compound 0.0316 µM): 856 nM
IC50 (second compound 0.1 µM): 804 nM
IC50 (second compound 0.316 µM): 1070 nM
IC50 (second compound 1 µM): 1230 nM
viability, T/C [1]: 98.5%
viability, T/C [2]: 87.2%
viability, T/C [3]: 75.9%
viability, T/C [4]: 61.1%
viability, T/C [5]: 40.4%
viability, T/C [6]: 11.9%
viability, T/C [7]: 88.5%
viability, T/C [8]: 72.3%
viability, T/C [9]: 57.2%
viability, T/C [10]: 51.2%
viability, T/C [11]: 38.7%
viability, T/C [12]: 11.7%
viability, T/C [13]: 77%
viability, T/C [14]: 68.4%
viability, T/C [15]: 60.6%
viability, T/C [16]: 43.9%
viability, T/C [17]: 37.3%
viability, T/C [18]: 11.4%
viability, T/C [19]: 68.5%
viability, T/C [20]: 66.7%
viability, T/C [21]: 60.4%
viability, T/C [22]: 47.7%
viability, T/C [23]: 39.8%
viability, T/C [24]: 17%
viability, T/C [25]: 92.1%
viability, T/C [26]: 83.3%
viability, T/C [27]: 66.7%
viability, T/C [28]: 56.5%
viability, T/C [29]: 34%
viability, T/C [30]: 23.5%
